For 19 compounds, IC50 results are on record in patent publication US20260297105A1, “RAF-MEK PROTEIN COMPLEX MODULATORS AND METHODS OF USE THEREOF” (GANDEEVA THERAPEUTICS, INC., priority 2023, published 2026).

This assay deals with T1, MEK1 (Homo sapiens, UniProt Q02750).
T1 construct: purchased SignalChem M02-14H
T1 sequence (Q02750 whole entry): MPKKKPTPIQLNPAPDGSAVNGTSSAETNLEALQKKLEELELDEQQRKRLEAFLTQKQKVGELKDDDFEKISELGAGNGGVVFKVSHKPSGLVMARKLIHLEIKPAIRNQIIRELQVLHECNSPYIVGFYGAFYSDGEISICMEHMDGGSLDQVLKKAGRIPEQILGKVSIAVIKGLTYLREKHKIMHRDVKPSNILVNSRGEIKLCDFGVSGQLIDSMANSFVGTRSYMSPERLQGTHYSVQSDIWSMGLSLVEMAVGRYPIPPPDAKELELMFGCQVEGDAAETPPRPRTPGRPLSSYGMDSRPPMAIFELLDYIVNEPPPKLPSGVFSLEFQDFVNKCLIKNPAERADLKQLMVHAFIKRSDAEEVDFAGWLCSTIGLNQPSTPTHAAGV
T1 sequence (P15056 445-723 partner limits assumed): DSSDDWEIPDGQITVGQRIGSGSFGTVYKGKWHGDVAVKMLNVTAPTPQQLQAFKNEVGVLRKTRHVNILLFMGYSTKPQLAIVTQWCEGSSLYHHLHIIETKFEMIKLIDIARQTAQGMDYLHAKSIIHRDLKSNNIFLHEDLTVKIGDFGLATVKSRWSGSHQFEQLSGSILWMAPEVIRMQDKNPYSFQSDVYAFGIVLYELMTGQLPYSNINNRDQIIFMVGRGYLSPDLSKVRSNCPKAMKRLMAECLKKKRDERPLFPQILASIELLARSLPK
The experiment in a line: MEK1 kinase cascade assay (ADP-Glo), inhibition of MEK1 kinase activity. The class given is biochemical. The following applies: 25 nM BRAF, 6.25 nM MEK1, 0.5 μM ERK, 1 mM ATP; 20 min preincubation, 1 hr at 25° C.; read-out: BRAF ADP Glo kinase assay V3 (IC50). From the text:
Protein expression and purification: BRAF (445-723) with N-term His-tag and C-term StrepII tag was expressed using the Expi293 system (ThermoFisher) and purified using Strep-Tactin® XT-Superflow (IBA) chromatography. ERK1 (full-length) with N-term His-tag was expressed in Rosetta DE3 cells (Millipore) and purified using HisTrap HP (Cytiva) and Superdex 200 (Cytiva) column chromatography. Full-length MEK1 for TR-FRET assays with N-term His-tag was expressed in BL21DE3 cells (ThermoFisher) and purified using HisTrap HP (Cytiva) and Superdex 200 (Cytiva) column chromatography.
Efficacy of exemplary compounds in inhibition of MEK1 kinase activity: The effect of compound MEK1 inhibition was evaluated using an ADP detection system for kinases, such as the ADP-Glo assay (Promega). The MEK1 kinase cascade assay consisted of 9 μL reaction volumes in 384-well white, opaque Optiplates (PerkinElmer). Compounds were prepared from DMSO stocks in assay buffer (10 mM HEPES pH 7.5, 5 mM MgCl2, 2 mM CHAPS, and 1 mM DTT) and preincubated with 25 nM BRAF for 20 mins at 25° C. prior to addition of 6.25 nM MEK1/0.5 μM ERK/1 mM ATP premix to initiate the kinase reaction. Both BRAF and ERK1 were produced in-house, and MEK1 was purchased from SignalChem (M02-14H). DMSO was kept constant at a final concentration of 1%. After a 1 hr incubation at 25° C., conversion of ATP to ADP was detected using ADP-Glo™ reagents according to the manufacturer's protocol. Luminescence was measured using a CLARIOstar microplate reader (BMG). Percent (%) Inhibition was calculated by normalizing to DMSO control (max) and 1 μM Trametinib (min). % inhibition as a function of compound concentration from 2 replicate wells was fit with a 4-parameter logistic curve equation using GraphPad Prism or CDD Vault to derive IC50 values.
In this table, for the BRAF ADP Glo kinase assay, “A” indicates IC50 of less than 5 nM; “B” indicates IC50 of between 5 nM to 50 nM; and “C” indicates IC50 of between 50 nM to 500 nM. “D” indicates IC50 of greater than 500 nM. For the BRAF-MEK TR-FRET assay, “A” indicates EC50 of less than 50 nM; “B” indicates EC50 of between 50 nM to 200 nM; and “C” indicates EC50 of between 200 nM to 1 μM. “D′” indicates EC50 of greater than 1 μM. For the AlphaLisa P-ERK assay, “A” indicates IC50 of less than 1 nM; “B” indicates IC50 of between 1 nM to 10 nM; and “C” indicates IC50 of between 10 nM to 100 nM. “D” indicates IC50 of greater than 100 nM. For the cell viability assay, “A” indicates IC50 of less than 1 nM; “B” indicates IC50 of between 1 nM to 10 nM; and “C” indicates IC50 of between 10 nM to 100 nM. “D” indicates IC50 of greater than 100 nM.
(In ADP-Glo the light output rises with the ADP produced.)
One may read the IC50 as the concentration that gives 50% inhibition. For the compound `CNS(=O)(=O)Nc1cccc(CN2C(=O)Oc3cc(Oc4ncco4)cc(F)c3[C@H]2C)c1F` (single isomer, unassigned) [Compound 87, (R)-5-fluoro-3-({2-fluoro-3-(methylsulfamoyl)amino]phenyl}methyl)-4-methyl-7-(1,3-oxazol-2-yloxy)-3,4-dihydro-2H-1,3-benzoxazin-2-one or (S)-5-fluoro-3-({2-fluoro-3-(methylsulfamoyl)amino]phenyl}methyl)-4-methyl-7-(1,3-oxazol-2-yloxy)-3,4-dihydro-2H-1,3-benzoxazin-2-one], the IC50 lay within 50 to 500 nM. To `CNS(=O)(=O)Cc1cccc(CN2C(=O)Oc3cc(Oc4cccnn4)ccc3C23COC3)c1F` [Compound 46, 1-(2-fluoro-3-{[2-oxo-7-(pyridazin-3-yloxy)-2,3-dihydrospiro[1,3-benzoxazine-4,3′-oxetan]-3-yl]methyl}phenyl)-N-methylmethanesulfonamide] belongs 50 to 500 nM; to `O=C1Oc2cc(Oc3cnccn3)ccc2C2(COC2)N1Cc1cccc(NS(=O)(=O)C2CC2)c1F` [Compound 69, N-(2-fluoro-3-{[2-oxo-7-(pyrazin-2-yloxy)-2,3-dihydrospiro[1,3-benzoxazine-4,3′-oxetan]-3-yl]methyl}phenyl)cyclopropanesulfonamide], 50 to 500 nM. For the compound `CNS(=O)(=O)Nc1nccc(CN2C(=O)Oc3cc(Oc4ncc(C)o4)ccc3C23CCC3)c1F` [Compound 180, 3-{[3-fluoro-2-(methylaminosulfonylamino)-4-pyridyl]methyl}-7-(5-methyl-1,3-oxazol-2-yloxy)-2H,3H-spiro[1,3-benzoxazine-4,1′-cyclobutan]-2-one], the IC50 was 5 to 50 nM.

As to `CNS(=O)(=O)Nc1cc(F)cc(CN2C(=O)Oc3cc(Oc4ncco4)ccc3C23CCC3)c1F` [Compound 195, 3-{[2,5-difluoro-3-(methylaminosulfonylamino)phenyl]methyl}-7-(1,3-oxazol-2-yloxy)-2H,3H-spiro[1,3-benzoxazine-4,1′-cyclobutan]-2-one], the IC50 lay in the range of 50 to 500 nM.

Regarding `CNS(=O)(=O)Nc1cccc(CN2Cc3ccc(Oc4cccnc4)cc3OC2=O)c1F` [Compound 61, 3-{[2-fluoro-3-(methylaminosulfonylamino)phenyl]methyl}-7-(3-pyridyloxy)-3,4-dihydro-2H-1,3-benzoxazin-2-one], the IC50 fell in the range of 5 to 50 nM. Under `O=C1Oc2cc(Oc3ncco3)c(F)cc2C2(COC2)N1Cc1ccnc(NS(=O)(=O)C2CC2)c1F` [Compound 172, N-(3-fluoro-4-((6-fluoro-7-(oxazol-2-yloxy)-2-oxospiro[benzo[e][1,3]oxazine-4,3′-oxetan]-3(2H)-yl)methyl)pyridin-2-yl)cyclopropanesulfonamide] stands 50 to 500 nM; under `CNS(=O)(=O)Nc1cccc(CN2C(=O)Oc3c(ccc(Oc4ncco4)c3F)[C@H]2C)c1F` (single isomer, unassigned) [Compound 90, (R)-8-fluoro-3-({2-fluoro-3-(methylsulfamoyl)amino]phenyl}methyl)-4-methyl-7-(1,3-oxazol-2-yloxy)-3,4-dihydro-2H-1,3-benzoxazin-2-one or (S)-8-fluoro-3-({2-fluoro-3-(methylsulfamoyl)amino]phenyl}methyl)-4-methyl-7-(1,3-oxazol-2-yloxy)-3,4-dihydro-2H-1,3-benzoxazin-2-one], 5 to 50 nM; under `CNS(=O)(=O)Nc1cccc(CN2Cc3ccc(OC4COC4)cc3OC2=O)c1F` [Compound 98, 3-{[2-fluoro-3-(methylaminosulfonylamino)phenyl]methyl}-7-(3-oxetanyloxy)-3,4-dihydro-2H-1,3-benzoxazin-2-one], greater than 500 nM. Under `O=C1Oc2cc(Oc3cccnc3)ccc2CN1Cc1cccc(NS(=O)(=O)C2CC2)c1F` [Compound 60, (cyclopropylsulfonyl)(2-fluoro-3-{[2-oxo-7-(3-pyridyloxy)-3,4-dihydro-2H-1,3-benzoxazin-3-yl]methyl}phenyl)amine] stands 50 to 500 nM.

`CNS(=O)(=O)Nc1ccc(F)c(CN2C(=O)Oc3cc(Oc4cccnn4)ccc3C23CCC3)c1F` [Compound 197, 3-{[2,6-difluoro-3-(methylaminosulfonylamino)phenyl]methyl}-7-(3-pyridazinyloxy)-2H,3H-spiro[1,3-benzoxazine-4,1′-cyclobutan]-2-one]: the IC50 is 50 to 500 nM. Under `CNS(=O)(=O)Nc1nccc(CN2C(=O)Oc3cc(Oc4ncco4)cnc3[C@@H]2C)c1F` (stereo in doubt) [Compound 190, 3-{[3-fluoro-2-(methylaminosulfonylamino)-4-pyridyl]methyl}-4-methyl-7-(1,3-oxazol-2-yloxy)-3,4-dihydro-2H-1-oxa-3,5-diazanaphthalen-2-one] stands 5 to 50 nM; under `CN(C)C(=O)Oc1ccc2c(c1)OC(=O)N(Cc1cccc(N3CCOC3=O)c1F)C2` [Compound 27, dimethylamino-3-{[2-fluoro-3-(2-oxo-1,3-oxazolidin-3-yl)phenyl]methyl}-2-oxo-3,4-dihydro-2H-1,3-benzoxazin-7-ylformylate], greater than 500 nM.

Regarding `C[C@@H]1c2c(F)cc(Oc3cccnn3)cc2OC(=O)N1Cc1cccc(NS(=O)(=O)C2CC2)c1F` (single isomer, unassigned) [Compound 54], the IC50 was 50 to 500 nM. For the compound `CNS(=O)(=O)Nc1cccc(CN2C(=O)Oc3cc(Oc4ncco4)cnc3[C@H]2C)c1F` (stereo in doubt) [Compound 189, 3-{[2-fluoro-3-(methylaminosulfonylamino)phenyl]methyl}-4-methyl-7-(1,3-oxazol-2-yloxy)-3,4-dihydro-2H-1-oxa-3,5-diazanaphthalen-2-one], the IC50 lay within 50 to 500 nM. To `CNS(=O)(=O)Cc1cccc(CN2Cc3ccc(OC(=O)N(C)C)cc3OC2=O)c1F` [Compound 45, 3-(2-fluoro-3-((N-methylsulfamoyl)methyl)benzyl)-2-oxo-3,4-dihydro-2H-benzo[e][1,3]oxazin-7-yl dimethylcarbamate] belongs greater than 500 nM. With `CNS(=O)(=O)Nc1cccc(CN2Cc3ccc(Oc4ncccn4)cc3OC2=O)c1F` [Compound 157, 3-({2-fluoro-3-[(methylsulfamoyl)amino]phenyl}methyl)-7-(pyrimidin-2-yloxy)-3,4-dihydro-2H-1,3-benzoxazin-2-one], the IC50 fell in the range of 5 to 50 nM. For `CNS(=O)(=O)Nc1cccc(CN2C(=O)Oc3cc(Oc4cnccn4)ccc3C23COC3)c1F` [Compound 70, 3-({2-fluoro-3-[(methylsulfamoyl)amino]phenyl}methyl)-7-(pyrazin-2-yloxy)-2,3-dihydrospiro[1,3-benzoxazine-4,3′-oxetan]-2-one], the IC50 fell in the range of 50 to 500 nM. Under `CNS(=O)(=O)Nc1cccc(CN2C(=O)Oc3c(ccc(Oc4ncccn4)c3F)[C@H]2C)c1F` (single isomer, unassigned) [Compound 93, (R)-8-fluoro-3-({2-fluoro-3-(methylsulfamoyl)amino]phenyl}methyl)-4-methyl-7-(pyrimidin-2-yloxy)-3,4-dihydro-2H-1,3-benzoxazin-2-one or (S)-8-fluoro-3-({2-fluoro-3-(methylsulfamoyl)amino]phenyl}methyl)-4-methyl-7-(pyrimidin-2-yloxy)-3,4-dihydro-2H-1,3-benzoxazin-2-one] stands 5 to 50 nM.
